Like-named read-outs stand apart in the source and are kept apart here.
Tests used:
HEK-Mock cells = experiment: CellTiter-Blue cell viability assay with HEK-Mock cells; format: cell-based; conditions: Homo sapiens
HEK-mFAP cells = experiment: CellTiter-Blue cell viability assay with HEK-mFAP cells; format: cell-based, Human; conditions: for activation by FAP expressed by HEK-mFAP cells / effect of addition of the FAP inhibitor 5057 on activation: FIG. 15A, 15B
SK-OV-3 = experiment: CellTiter-Blue cell viability assay, SK-OV-3; format: cell-based; conditions: 5061DOX assay 2, SK-OV-3, 72 hour
OVCAR-3 = experiment: CellTiter-Blue cell viability assay, OVCAR-3; format: cell-based; conditions: 5061DOX assay 2, OVCAR-3, 72 hour
MCF-7 = experiment: CellTiter-Blue cell viability assay, MCF-7; format: cell-based; conditions: 5061DOX assay 2, MCF-7, 72 hour
PREP = biological target: T1, PREP (Homo sapiens, UniProt P48147); experiment: Specificity of activation: 24 h digestion with PREP; format: biochemical; conditions: 100 μM prodrug, 37° C.
T1 sequence (P48147 1-710): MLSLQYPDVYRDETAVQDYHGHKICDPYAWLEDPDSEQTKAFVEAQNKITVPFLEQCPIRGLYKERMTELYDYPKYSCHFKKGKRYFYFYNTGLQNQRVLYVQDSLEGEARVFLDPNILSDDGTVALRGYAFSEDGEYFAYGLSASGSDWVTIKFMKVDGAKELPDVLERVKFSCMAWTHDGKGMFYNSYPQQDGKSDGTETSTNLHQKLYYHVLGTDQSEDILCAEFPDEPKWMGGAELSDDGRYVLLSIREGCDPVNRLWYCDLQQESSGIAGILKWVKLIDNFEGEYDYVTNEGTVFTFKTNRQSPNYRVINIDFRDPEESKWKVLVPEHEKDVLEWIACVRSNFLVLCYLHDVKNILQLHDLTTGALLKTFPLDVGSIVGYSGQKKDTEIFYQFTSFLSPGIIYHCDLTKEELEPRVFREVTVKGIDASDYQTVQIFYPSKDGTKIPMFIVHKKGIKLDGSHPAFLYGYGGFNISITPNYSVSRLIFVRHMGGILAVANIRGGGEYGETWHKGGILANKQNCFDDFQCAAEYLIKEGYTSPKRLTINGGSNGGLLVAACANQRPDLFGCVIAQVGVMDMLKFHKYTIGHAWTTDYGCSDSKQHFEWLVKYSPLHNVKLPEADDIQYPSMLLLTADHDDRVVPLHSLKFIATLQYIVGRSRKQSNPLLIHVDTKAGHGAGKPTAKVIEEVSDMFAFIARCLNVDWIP
Procedure: (§1) Total doxorubicin was measured for each assay.

[1] = biological target: dipeptidyl peptidase IV (DPP IV) (Homo sapiens, UniProt P27487); experiment: Specificity of activation: 24 h digestion with DPP IV; format: biochemical; conditions: 100 μM prodrug, 37° C.
Chain of dipeptidyl peptidase IV (DPP IV) (P27487 whole entry, species assumed): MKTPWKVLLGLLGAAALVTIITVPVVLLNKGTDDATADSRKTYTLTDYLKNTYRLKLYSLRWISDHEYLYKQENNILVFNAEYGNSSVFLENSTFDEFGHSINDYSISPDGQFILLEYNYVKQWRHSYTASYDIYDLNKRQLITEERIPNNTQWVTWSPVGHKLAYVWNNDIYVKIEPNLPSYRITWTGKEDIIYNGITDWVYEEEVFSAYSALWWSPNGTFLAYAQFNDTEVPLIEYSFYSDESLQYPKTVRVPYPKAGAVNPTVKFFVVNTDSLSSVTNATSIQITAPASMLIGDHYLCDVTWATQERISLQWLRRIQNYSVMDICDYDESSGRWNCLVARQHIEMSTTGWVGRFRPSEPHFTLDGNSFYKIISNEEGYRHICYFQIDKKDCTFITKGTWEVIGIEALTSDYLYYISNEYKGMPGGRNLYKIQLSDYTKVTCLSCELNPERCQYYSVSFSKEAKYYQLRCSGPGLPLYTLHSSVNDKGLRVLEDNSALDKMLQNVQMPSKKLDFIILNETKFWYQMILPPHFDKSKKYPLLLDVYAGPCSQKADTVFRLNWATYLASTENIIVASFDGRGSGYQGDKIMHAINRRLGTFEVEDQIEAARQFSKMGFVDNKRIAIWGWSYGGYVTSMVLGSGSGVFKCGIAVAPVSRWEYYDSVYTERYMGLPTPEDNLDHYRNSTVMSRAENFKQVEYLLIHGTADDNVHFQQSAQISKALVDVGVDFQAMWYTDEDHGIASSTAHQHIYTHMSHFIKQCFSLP
Procedure: as §1

[2] = read-out: EC50 (doxorubicin alone)
[3] = Homo sapiens, 72 h, MK-2206 / Akt inhibitor prodrugs, HEK-mFAP cells, 72 hour incubation, read-out: EC50 (prodrug alone)
[4] = Homo sapiens, read-out: EC50 (prodrug + 100 uM 5057)
[5] = Homo sapiens, read-out: EC50 (prodrug alone)

In the case of `C[C@@H](NC(=O)c1ccncc1)C(=O)N1CCC[C@H]1C(=O)Nc1ccc(COC(=O)NC2(c3ccc(-c4nc5ccn6c(=O)[nH]nc6c5cc4-c4ccccc4)cc3)CCC2)cc1` [Compound 5157], the EC50 (HEK-Mock cells; 5157 assay, HEK-Mock, read-out: EC50 (prodrug + 100 uM 3099-15)) is reported as > 2.5 µM, the EC50 (HEK-Mock cells; 5157 assay, HEK-Mock, read-out: EC50 (prodrug alone)) is reported as > 2.5 µM and the EC50 (HEK-mFAP cells; Homo sapiens, 5157 assay, HEK-mFAP, read-out: EC50 (prodrug + 100 uM 3099-15)) is reported as > 2.5 µM. The EC50 (HEK-mFAP cells; Homo sapiens, 5157 assay, HEK-mFAP, read-out: EC50 (prodrug alone)) was 2.9 µM.

`COc1cccc2c1C(=O)c1c(O)c3c(c(O)c1C2=O)C[C@@](O)(C(=O)CO)C[C@@H]3O[C@H]1C[C@H](N)[C@H](O)[C@H](C)O1` [doxorubicin, reference compound] was tested, and the EC50 (SK-OV-3; [2]) was 0.44 µM, the EC50 (OVCAR-3; [2]) was 1.7 µM and the EC50 (MCF-7; [2]) was 54 µM.

`Cn1ncc(Cl)c1-c1cc(C(=O)N[C@H](CN)Cc2cccc(F)c2)sc1Cl` [GSK2 110183, reference compound] was tested, and the EC50 (HEK-mFAP cells; HEK-mFAP cells, 72 hrs, read-out: EC50 (GSK2 110183)) was 0.49 µM.

`O=C(NC1(C(=O)N[C@@H](CCO)c2ccc(Cl)cc2)CCN(c2ncnc3[nH]ccc23)CC1)OCc1ccc(NC(=O)[C@@H]2CC(F)(F)CN2C(=O)CNC(=O)c2ccnc3ccccc23)cc1` [Compound 5189] showed an EC50 (HEK-mFAP cells; Homo sapiens, 72 h, Akt inhibitor prodrugs, HEK-mFAP cells, 72 hour, read-out: EC50 (prodrug + 100 uM 5057-2)) of 5.8 µM and an EC50 (HEK-mFAP cells; [3]) of 3 µM.

With `COc1cccc2c1C(=O)c1c(O)c3c(c(O)c1C2=O)C[C@@](O)(C(=O)CO)C[C@@H]3OC1CC(NC(=O)[C@@H]2CC(F)(F)CN2C(=O)[C@@H](C)NC(=O)c2ccnc3ccccc23)C(O)C(C)O1` (stereo partly drawn) [Compound 5107DOX] the EC50 (HEK-mFAP cells; Homo sapiens, 5107DOX assay, HEK-mFAP, 72 hour, read-out: EC50 (prodrug + 100 uM 5057-2)) was > 100 µM and the EC50 (HEK-mFAP cells; Homo sapiens, 5107DOX assay, HEK-mFAP, 72 hour, read-out: EC50 (prodrug alone)) was 0.94 µM.

With `C[C@@H](NC(=O)c1ccnc2ccccc12)C(=O)N1CC(F)(F)C[C@H]1C(=O)Nc1ccc(COC(=O)NC2(c3ccc(-c4nc5ccn6c(=O)[nH]nc6c5cc4-c4ccccc4)cc3)CCC2)cc1` [Compound 5174] the “activation by FAP expressed by HEK-mFAP cells” value (HEK-mFAP cells) was “appears to be activated by the FAP expressed by the HEK-mFAP cells”, the “effect of addition of the FAP inhibitor 5057 on activation” value (HEK-mFAP cells) was “blocks this activation” and the EC50 (HEK-mFAP cells; [3]) was 4.6 µM.

With `NCC(=O)NNc1ccc(C(=O)NCC(=O)N2CC(F)(F)C[C@H]2C(=O)Nc2ccc(COC(=O)NC3(c4ccc(-c5nc6ccn7c(=O)[nH]nc7c6cc5-c5ccccc5)cc4)CCC3)cc2)cn1` [Compound 5193] the EC50 (HEK-mFAP cells; [3]) was 2.6 µM.

For `O=C(NC1(c2ccc(-c3nc4ccn5c(=O)[nH]nc5c4cc3-c3ccccc3)cc2)CCC1)OCc1ccc(NC(=O)[C@@H]2CC(F)(F)CN2C(=O)CNC(=O)c2ccnc3ccccc23)cc1` [Compound 5173], the “activation by FAP expressed by HEK-mFAP cells” value (HEK-mFAP cells) was “appears to be activated by the FAP expressed by the HEK-mFAP cells”, the “effect of addition of the FAP inhibitor 5057 on activation” value (HEK-mFAP cells) was “blocks this activation” and the EC50 (HEK-mFAP cells; [3]) was > 2.5 µM.

`CCn1c(-c2nonc2N)nc2c(C#CC(C)(C)O)ncc(OC[C@H]3CCCN(C(=O)[C@@H]4CC(F)(F)CN4C(=O)CNC(=O)c4ccnc5ccccc45)C3)c21` [Compound 5188] was tested, and the EC50 (HEK-mFAP cells; [3]) was > 25 µM.

`CCn1c(-c2nonc2N)nc2c(C#CC(C)(C)O)ncc(OC[C@H]3CCCNC3)c21` [GSK690693, reference compound] was tested, and the EC50 (HEK-mFAP cells; Homo sapiens, 72 h, HEK-mFAP cells, 72 hour, read-out: EC50 (GSK690693)) was 15 µM.

With `COc1cccc2c1C(=O)c1c(O)c3c(c(O)c1C2=O)C[C@@](O)(C(=O)CO)C[C@@H]3OC1CC(NC(=O)[C@@H]2CCCN2C(=O)[C@@H](C)NC(=O)[C@H](CO)NC(=O)CCC(=O)O)C(O)C(C)O1` (stereo partly drawn) [Compound 3996DOX] the “doxorubicin released by PREP” value (PREP) was “essentially none by PREP or DPP IV” and the “doxorubicin released by DPP IV” value [1] was “essentially none by PREP or DPP IV”.

AZD5363 [reference compound] showed an EC50 (HEK-mFAP cells; HEK-mFAP cells, 72 hour, read-out: EC50 (AZD5363)) of 2.5 µM.

`NNc1ccc(C(=O)NCC(=O)N2CC(F)(F)C[C@H]2C(=O)Nc2ccc(COC(=O)NC3(c4ccc(-c5nc6ccn7c(=O)[nH]nc7c6cc5-c5ccccc5)cc4)CCC3)cc2)cn1` [Compound 5192] was tested, and the EC50 (HEK-mFAP cells; [3]) was > 3 µM.

`Cn1ncc(Cl)c1-c1cc(C(=O)N[C@H](CNC(=O)[C@@H]2CC(F)(F)CN2C(=O)CNC(=O)c2ccnc3ccccc23)Cc2cccc(F)c2)sc1Cl` [Compound 5184] gave an EC50 (HEK-mFAP cells; Homo sapiens, 72 h, Akt inhibitor prodrugs, HEK-mFAP cells, 72 hrs, read-out: EC50 (prodrug alone)) of 0.93 µM.

For `NC1(c2ccc(-c3nc4ccn5c(=O)[nH]nc5c4cc3-c3ccccc3)cc2)CCC1` [MK-2206, reference compound], the EC50 (HEK-Mock cells; 5157 assay, HEK-Mock, read-out: EC50 (MK-2206 alone)) was 6.7 µM, the EC50 (HEK-mFAP cells; Homo sapiens, 5157 assay, HEK-mFAP, read-out: EC50 (MK-2206 alone)) was 5.3 µM and the EC50 (HEK-mFAP cells; Homo sapiens, 72 h, HEK-mFAP cells, 72 hrs, read-out: EC50 (MK-2206)) was 9.1 µM.

`COc1cccc2c1C(=O)c1c(O)c3c(c(O)c1C2=O)C[C@@](O)(C(=O)CO)C[C@@H]3OC1CC(NC(=O)[C@@H]2CCCN2C(=O)[C@@H](C)NC(=O)c2ccnc3cccc(Br)c23)C(O)C(C)O1` (stereo partly drawn) [Compound 5061DOX] was tested, and the EC50 (SK-OV-3; Homo sapiens, read-out: EC50 (prodrug + 25 nM FAP)) was 0.9 µM, the EC50 (SK-OV-3; [4]) was > 100 µM and the EC50 (SK-OV-3; [5]) was > 100 µM. The EC50 (OVCAR-3; [4]) was > 100 µM, the EC50 (OVCAR-3; Homo sapiens, read-out: EC50 (prodrug = 25 nM FAP)) was 1.5 µM and the EC50 (OVCAR-3; [5]) was > 100 µM. For the same molecule, the EC50 (HEK-Mock cells; 72 h, 5061DOX assay 1, HEK-Mock, 72 hour, read-out: EC50 (prodrug + 25 nM FAP)) was 0.28 µM, the EC50 (HEK-Mock cells; 72 h, 5061DOX assay 1, HEK-Mock, 72 hour, read-out: EC50 (prodrug + 50 nM PREP)) was > 100 µM and the EC50 (HEK-Mock cells; 72 h, 5061DOX assay 1, HEK-Mock, 72 hour, read-out: EC50 (prodrug + 100 uM 5057)) was > 100 µM. For the same molecule, the EC50 (HEK-Mock cells; 72 h, 5061DOX assay 1, HEK-Mock, 72 hour, read-out: EC50 (prodrug alone)) was > 100 µM, the EC50 (HEK-Mock cells; 72 h, 5061DOX assay 2, HEK-Mock, 72 hour, read-out: EC50 (prodrug + 25 nM FAP)) was 0.25 µM and the EC50 (HEK-Mock cells; 72 h, 5061DOX assay 2, HEK-Mock, 72 hour, read-out: EC50 (prodrug alone)) was > 100 µM. For the same molecule, the EC50 (HEK-mFAP cells; 5061DOX assay 1, HEK-mFAP, 72 hour, read-out: EC50 (prodrug alone)) was > 100 µM, the EC50 (HEK-mFAP cells; 5061DOX assay 2, HEK-mFAP, 72 hour, read-out: EC50 (prodrug + 100 uM 5057)) was > 100 µM and the EC50 (HEK-mFAP cells; Homo sapiens, 5061DOX assay 1, HEK-mFAP, 72 hour, read-out: EC50 (prodrug + 100 uM 5057)) was > 100 µM. The EC50 (HEK-mFAP cells; Homo sapiens, 5061DOX assay 2, HEK-mFAP, 72 hour, read-out: EC50 (prodrug alone)) was > 100 µM, the EC50 (MCF-7; Homo sapiens, MCF7, read-out: EC50 (prodrug + 25 nM FAP)) was > 100 µM and the EC50 (MCF-7; Homo sapiens, MCF7, read-out: EC50 (prodrug + 100 uM 5057)) was > 100 µM. The EC50 (MCF-7; Homo sapiens, MCF7, read-out: EC50 (prodrug alone)) was > 100 µM.

Reference: US12121505B2, “Fap-activated therapeutic agents, and uses related thereto” (BACH BIOSCIENCES, LLC, priority 2014, dated 2024)
